Article PMC10363545, “The potential use of glycosyl-transferase inhibitors for targeted reduction of S. mutans biofilms in dental materials” (Scientific Reports, 2023)

What was measured:
GTF-B = molecular target: T1, GTF-B (Streptococcus mutans, UniProt P08987); assay: pNPG hydrolysis kinetics with recombinant enzyme (Vmax reduced […]); gel zymography at […] ([…] inhibition); format: biochemical
T1 construct: gene gtfB; recombinant GTF-B

GTF-C = molecular target: T2, GTF-C (Streptococcus mutans, UniProt P13470); assay: dynamic light scattering glucan polymerization assay with recombinant GTF-C at […] sucrose; also pNPG hydrolysis kinetics and gel zymography; format: biochemical
T2 construct: gene gtfC; recombinant GTF-C
T2 sequence (P13470 35-1455): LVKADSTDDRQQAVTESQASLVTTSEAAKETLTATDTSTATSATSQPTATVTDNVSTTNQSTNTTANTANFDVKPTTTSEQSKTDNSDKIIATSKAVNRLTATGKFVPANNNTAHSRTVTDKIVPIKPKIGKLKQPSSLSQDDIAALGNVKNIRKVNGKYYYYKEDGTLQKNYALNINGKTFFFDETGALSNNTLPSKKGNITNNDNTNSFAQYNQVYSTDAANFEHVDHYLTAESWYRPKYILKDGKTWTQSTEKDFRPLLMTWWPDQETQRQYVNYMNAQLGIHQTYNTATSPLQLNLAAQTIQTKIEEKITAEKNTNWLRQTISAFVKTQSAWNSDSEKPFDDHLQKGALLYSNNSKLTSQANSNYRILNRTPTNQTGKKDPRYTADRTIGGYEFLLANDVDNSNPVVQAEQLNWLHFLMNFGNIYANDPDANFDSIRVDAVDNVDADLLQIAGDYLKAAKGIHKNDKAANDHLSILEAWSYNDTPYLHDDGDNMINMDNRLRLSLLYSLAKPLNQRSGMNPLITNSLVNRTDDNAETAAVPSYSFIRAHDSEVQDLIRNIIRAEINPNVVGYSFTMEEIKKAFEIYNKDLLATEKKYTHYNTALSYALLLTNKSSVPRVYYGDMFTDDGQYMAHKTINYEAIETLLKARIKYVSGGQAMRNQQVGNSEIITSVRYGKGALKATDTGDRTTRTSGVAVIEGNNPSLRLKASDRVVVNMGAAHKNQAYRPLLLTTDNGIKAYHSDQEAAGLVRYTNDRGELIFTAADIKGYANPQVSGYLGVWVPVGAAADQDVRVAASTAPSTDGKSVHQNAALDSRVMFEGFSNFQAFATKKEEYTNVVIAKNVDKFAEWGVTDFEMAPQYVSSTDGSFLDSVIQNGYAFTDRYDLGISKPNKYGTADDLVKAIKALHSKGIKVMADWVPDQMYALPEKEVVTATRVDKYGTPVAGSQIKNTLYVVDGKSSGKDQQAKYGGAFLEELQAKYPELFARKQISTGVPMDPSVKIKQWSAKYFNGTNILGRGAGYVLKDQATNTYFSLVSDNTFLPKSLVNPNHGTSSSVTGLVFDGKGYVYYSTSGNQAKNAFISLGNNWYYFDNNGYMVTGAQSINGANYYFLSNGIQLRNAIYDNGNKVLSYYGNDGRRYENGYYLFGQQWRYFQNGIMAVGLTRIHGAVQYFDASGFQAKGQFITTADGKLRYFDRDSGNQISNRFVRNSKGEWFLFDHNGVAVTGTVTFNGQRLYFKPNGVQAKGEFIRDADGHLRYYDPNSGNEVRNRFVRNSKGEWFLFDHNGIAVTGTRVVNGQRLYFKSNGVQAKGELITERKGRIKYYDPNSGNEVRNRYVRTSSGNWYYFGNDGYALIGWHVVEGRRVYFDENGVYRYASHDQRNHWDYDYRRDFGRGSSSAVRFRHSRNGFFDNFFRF

T1 sequence (P08987 35-1476): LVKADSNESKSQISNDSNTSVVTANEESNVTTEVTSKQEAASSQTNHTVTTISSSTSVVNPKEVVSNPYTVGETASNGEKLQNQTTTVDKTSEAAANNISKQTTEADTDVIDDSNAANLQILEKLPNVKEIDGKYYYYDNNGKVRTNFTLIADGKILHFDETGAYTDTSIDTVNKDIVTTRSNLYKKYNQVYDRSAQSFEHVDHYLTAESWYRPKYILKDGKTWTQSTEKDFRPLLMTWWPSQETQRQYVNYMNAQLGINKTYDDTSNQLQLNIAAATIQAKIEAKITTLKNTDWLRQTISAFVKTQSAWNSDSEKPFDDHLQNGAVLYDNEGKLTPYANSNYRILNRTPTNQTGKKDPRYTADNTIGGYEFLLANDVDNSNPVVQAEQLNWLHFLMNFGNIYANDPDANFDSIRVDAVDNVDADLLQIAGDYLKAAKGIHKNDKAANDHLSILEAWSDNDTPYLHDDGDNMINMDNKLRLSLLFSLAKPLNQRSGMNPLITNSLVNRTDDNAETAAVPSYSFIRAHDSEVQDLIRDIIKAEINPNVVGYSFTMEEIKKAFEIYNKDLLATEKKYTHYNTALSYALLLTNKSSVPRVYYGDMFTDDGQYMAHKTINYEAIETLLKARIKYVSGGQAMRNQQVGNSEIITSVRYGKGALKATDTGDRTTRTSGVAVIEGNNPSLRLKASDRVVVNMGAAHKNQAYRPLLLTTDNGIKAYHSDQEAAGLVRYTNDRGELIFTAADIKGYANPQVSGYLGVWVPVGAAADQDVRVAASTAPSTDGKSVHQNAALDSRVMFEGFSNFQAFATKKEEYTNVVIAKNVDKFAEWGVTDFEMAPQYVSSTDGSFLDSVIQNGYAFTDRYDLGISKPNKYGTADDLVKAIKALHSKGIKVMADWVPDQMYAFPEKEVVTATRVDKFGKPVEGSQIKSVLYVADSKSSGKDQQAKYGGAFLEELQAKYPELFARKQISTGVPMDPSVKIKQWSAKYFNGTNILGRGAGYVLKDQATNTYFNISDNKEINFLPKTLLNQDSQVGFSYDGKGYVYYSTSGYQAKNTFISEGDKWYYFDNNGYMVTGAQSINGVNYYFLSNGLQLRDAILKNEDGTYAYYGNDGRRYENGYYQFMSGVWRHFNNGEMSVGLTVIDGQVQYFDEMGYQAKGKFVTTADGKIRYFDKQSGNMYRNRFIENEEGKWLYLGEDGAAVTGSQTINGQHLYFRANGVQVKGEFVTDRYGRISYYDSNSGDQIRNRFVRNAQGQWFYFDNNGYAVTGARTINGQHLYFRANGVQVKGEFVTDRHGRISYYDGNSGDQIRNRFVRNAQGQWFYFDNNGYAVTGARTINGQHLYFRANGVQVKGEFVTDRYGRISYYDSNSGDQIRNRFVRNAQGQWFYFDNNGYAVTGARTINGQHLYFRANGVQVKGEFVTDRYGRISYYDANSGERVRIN

NC(=O)c1cc(OCCOCCOCCOCCO)ccc1NC(=O)c1cc2cc([N+](=O)[O-])ccc2s1 [G43-C3-TEG]
% reduction of Vmax (GTF-B): 39 % reduction of Vmax | IC50 (GTF-C): 23.5 µM
